Laboratory results: ChEMBL document CHEMBL6134853, “Design, Synthesis, and Biological Evaluation of Pyrrolo[1,2-a]quinoxalin-4(5H)-one Derivatives as Potent and Orally Available Noncovalent Bruton's Tyrosine Kinase (BTK) Inhibitors” (J Med Chem, 2025)
The source made the active and inactive calls. The calls are words filed in the database; no cut-off is given here.

Experiments:
[1] = target: T1, Tyrosine-protein kinase BTK (Homo sapiens, UniProt Q06187); test: Inhibition of BTK (unknown origin) by HTRF analysis
T1 sequence (Q06187 whole entry): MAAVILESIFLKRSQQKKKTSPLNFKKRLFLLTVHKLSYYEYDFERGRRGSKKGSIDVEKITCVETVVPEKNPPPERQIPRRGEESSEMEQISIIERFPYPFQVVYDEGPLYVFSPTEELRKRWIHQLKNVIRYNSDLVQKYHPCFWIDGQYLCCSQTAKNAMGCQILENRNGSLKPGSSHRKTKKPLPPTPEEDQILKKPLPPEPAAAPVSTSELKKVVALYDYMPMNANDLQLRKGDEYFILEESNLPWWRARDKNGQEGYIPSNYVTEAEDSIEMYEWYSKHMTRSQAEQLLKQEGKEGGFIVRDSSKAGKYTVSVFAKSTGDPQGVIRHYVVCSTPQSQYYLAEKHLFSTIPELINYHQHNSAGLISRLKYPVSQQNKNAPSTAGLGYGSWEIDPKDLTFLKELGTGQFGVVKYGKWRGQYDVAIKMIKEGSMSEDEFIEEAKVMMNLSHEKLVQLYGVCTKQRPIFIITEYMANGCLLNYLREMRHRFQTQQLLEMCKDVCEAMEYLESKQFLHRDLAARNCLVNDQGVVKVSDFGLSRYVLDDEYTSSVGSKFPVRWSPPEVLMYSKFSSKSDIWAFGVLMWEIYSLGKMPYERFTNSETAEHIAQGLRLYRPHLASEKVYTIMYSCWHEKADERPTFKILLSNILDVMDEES

[2] = Tmax in male Sprague-Dawley rat at 10 mg/kg, po measured up to 5 hrs by LC-MS/MS analysis; type: ADME, organism-based; details: in vivo
[3] = AUC (0 to 5 hrs) in male Sprague-Dawley rat at 10 mg/kg, po measured up to 5 hrs by LC-MS/MS analysis; type: ADME, organism-based; details: in vivo
[4] = MRT (0 to 5 hrs) in male Sprague-Dawley rat at 10 mg/kg, po measured up to 5 hrs by LC-MS/MS analysis; type: ADME, organism-based; details: in vivo
[5] = target: T2, Tyrosine-protein kinase Tec (Homo sapiens) (UniProt P42680); test: Inhibition of TEC (unknown origin) at 100 nM relative to control
T2 sequence (whole entry): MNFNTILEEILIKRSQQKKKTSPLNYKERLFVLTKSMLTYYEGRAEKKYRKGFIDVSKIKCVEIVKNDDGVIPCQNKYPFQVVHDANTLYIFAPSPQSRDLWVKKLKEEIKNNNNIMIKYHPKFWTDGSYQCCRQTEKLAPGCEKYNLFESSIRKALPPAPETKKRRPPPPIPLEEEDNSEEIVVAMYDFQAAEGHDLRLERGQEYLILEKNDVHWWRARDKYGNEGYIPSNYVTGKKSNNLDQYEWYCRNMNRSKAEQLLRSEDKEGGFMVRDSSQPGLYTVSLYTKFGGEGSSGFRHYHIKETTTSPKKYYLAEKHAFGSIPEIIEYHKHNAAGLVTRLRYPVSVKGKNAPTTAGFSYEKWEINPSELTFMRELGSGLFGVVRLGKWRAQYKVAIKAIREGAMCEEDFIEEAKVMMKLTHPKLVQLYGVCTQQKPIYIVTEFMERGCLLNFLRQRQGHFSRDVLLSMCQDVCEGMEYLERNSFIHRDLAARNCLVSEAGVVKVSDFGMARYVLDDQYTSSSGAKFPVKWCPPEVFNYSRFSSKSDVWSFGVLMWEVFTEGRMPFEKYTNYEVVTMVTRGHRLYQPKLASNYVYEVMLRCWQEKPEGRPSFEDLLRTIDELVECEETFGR

[6] = target: Phosphatidylinositol 4-phosphate 5-kinase type-1 alpha (Homo sapiens) (UniProt Q99755); test: Inhibition of PIP5K1A (unknown origin) at 100 nM relative to control
Phosphatidylinositol 4-phosphate 5-kinase type-1 alpha (Homo sapiens), sequence (Q99755 whole entry): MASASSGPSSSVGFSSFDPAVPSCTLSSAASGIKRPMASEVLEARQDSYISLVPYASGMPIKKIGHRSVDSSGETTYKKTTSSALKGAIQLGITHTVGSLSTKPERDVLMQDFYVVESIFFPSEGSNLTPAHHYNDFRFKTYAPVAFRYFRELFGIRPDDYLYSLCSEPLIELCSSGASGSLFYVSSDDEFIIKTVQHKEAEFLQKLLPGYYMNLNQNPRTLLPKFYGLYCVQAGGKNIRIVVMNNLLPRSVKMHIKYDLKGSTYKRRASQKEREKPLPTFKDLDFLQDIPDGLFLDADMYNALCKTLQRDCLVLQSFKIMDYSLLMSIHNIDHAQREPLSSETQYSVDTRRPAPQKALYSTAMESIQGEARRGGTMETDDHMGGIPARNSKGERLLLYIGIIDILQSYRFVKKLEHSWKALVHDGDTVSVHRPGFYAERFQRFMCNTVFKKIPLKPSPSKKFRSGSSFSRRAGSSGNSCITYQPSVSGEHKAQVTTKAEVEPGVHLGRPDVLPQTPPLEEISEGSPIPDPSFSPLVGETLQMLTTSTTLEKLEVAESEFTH

[7] = target: T3, Serine/threonine-protein kinase RIO3 (Homo sapiens) (UniProt O14730); test: Inhibition of RIOK3 (unknown origin) at 100 nM relative to control
T3 sequence (whole entry): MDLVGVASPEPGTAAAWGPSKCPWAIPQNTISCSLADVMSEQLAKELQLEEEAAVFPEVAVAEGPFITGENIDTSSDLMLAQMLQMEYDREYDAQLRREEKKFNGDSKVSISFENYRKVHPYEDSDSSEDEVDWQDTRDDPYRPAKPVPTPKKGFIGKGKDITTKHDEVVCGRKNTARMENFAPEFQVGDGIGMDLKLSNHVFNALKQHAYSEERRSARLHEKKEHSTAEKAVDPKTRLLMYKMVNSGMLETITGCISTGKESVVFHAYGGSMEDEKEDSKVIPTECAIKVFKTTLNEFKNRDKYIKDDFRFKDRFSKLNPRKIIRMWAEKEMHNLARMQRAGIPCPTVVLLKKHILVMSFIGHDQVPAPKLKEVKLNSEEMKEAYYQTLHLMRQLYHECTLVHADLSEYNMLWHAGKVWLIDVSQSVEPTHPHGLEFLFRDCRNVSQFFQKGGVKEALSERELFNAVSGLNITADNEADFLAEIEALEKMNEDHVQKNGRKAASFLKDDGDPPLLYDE

[8] = target: T1, Tyrosine-protein kinase BTK; test: Inhibition of BTK phosphorylation at Y223 residue in anti-IgM induced human U-937 cells preincubated with compound for 4 hrs followed by anti-IgM induction and measured after 15 mins by Western blot analysis; type: cell-based; details: dose <= 1.0 µM, time 255.0 min
[9] = tested on: U-937; test: Induction of cell cycle arrest in human U-937 cells assessed as accumulation of cells at S-phase incubated for 2 days by PI staining based flow cytometry analysis; type: functional; details: dose 1-10 µM, time 2.0 day
[10] = tested on: U-937; test: Induction of apoptosis in human U-937 cells incubated for 2 days by Annexin V/PI staining based flow cytometry analysis; type: functional, cell-based; details: dose 1-10 µM, time 2.0 day
[11] = tested on: U-937; test: Antitumor activity against human U-937 cells xenografted in po dosed BALB/c mouse assessed as tumor growth inhibition administered once a day for 14 days; type: functional, organism-based; details: dose 50-100 mg/kg, time 14.0 day
[12] = Toxicity in BALB/c mouse xenografted with human U-937 cells assessed as change in body weight at 50 to 100 mg/kg, po administered once a day for 14 days; type: organism-based; details: in vivo, 336 h, dose 50-100 mg/kg, time 14 day
[13] = tested on: U-937; test: Antitumor activity against human U-937 cells xenografted in BALB/c mouse assessed as reduction in Ki67 expression in tumor at 50 mg/kg, po administered once a day for 14 days by immunohistochemical analysis; type: functional, organism-based; details: time 14.0 day
[14] = Toxicity in BALB/c mouse xenografted with human U-937 cells assessed as parenchymal injury in heart at 50 to 100 mg/kg, po administered once a day for 14 days by H and E staining based analysis; type: organism-based; details: in vivo, 336 h, dose 50-100 mg/kg, time 14 day
[15] = Toxicity in BALB/c mouse xenografted with human U-937 cells assessed as parenchymal injury in liver at 50 to 100 mg/kg, po administered once a day for 14 days by H and E staining based analysis; type: organism-based; details: in vivo, 336 h, dose 50-100 mg/kg, time 14 day
[16] = Toxicity in BALB/c mouse xenografted with human U-937 cells assessed as parenchymal injury in spleen at 50 to 100 mg/kg, po administered once a day for 14 days by H and E staining based analysis; type: organism-based; details: in vivo, 336 h, dose 50-100 mg/kg, time 14 day
[17] = Toxicity in BALB/c mouse xenografted with human U-937 cells assessed as parenchymal injury in lung at 50 to 100 mg/kg, po administered once a day for 14 days by H and E staining based analysis; type: organism-based; details: in vivo, 336 h, dose 50-100 mg/kg, time 14 day
[18] = Toxicity in BALB/c mouse xenografted with human U-937 cells assessed as parenchymal injury in kidney at 50 to 100 mg/kg, po administered once a day for 14 days by H and E staining based analysis; type: organism-based; details: in vivo, 336 h, dose 50-100 mg/kg, time 14 day
[19] = Toxicity in BALB/c mouse xenografted with human U-937 cells assessed as inflammatory infiltration in heart at 50 to 100 mg/kg, po administered once a day for 14 days by H and E staining based analysis; type: organism-based; details: in vivo, 336 h, dose 50-100 mg/kg, time 14 day
[20] = Toxicity in BALB/c mouse xenografted with human U-937 cells assessed as inflammatory infiltration in liver at 50 to 100 mg/kg, po administered once a day for 14 days by H and E staining based analysis; type: organism-based; details: in vivo, 336 h, dose 50-100 mg/kg, time 14 day
[21] = Toxicity in BALB/c mouse xenografted with human U-937 cells assessed as inflammatory infiltration in spleen at 50 to 100 mg/kg, po administered once a day for 14 days by H and E staining based analysis; type: organism-based; details: in vivo, 336 h, dose 50-100 mg/kg, time 14 day
[22] = Toxicity in BALB/c mouse xenografted with human U-937 cells assessed as inflammatory infiltration in kidney at 50 to 100 mg/kg, po administered once a day for 14 days by H and E staining based analysis; type: organism-based; details: in vivo, 336 h, dose 50-100 mg/kg, time 14 day

- IC50 [1]: 21.6 nM
- Tmax [2]: 30 min
- AUC(0-t) at 5 h [3]: 116 ng·h/mL
- MRT last at 5 h [4]: 88.8 min
- inhibition [5]: Active
- inhibition [6]: Active
- inhibition [7]: Active
- inhibition [8]: Dose-dependent-effect
SMILES: CC(C)(O)c1ccc2c(c1)[nH]c(=O)c1ccc(-c3cccc(-n4c(=O)[nH]c5c(F)cccc5c4=O)c3F)n12
- Activity [9]: Dose-dependent-effect
- Activity [10]: Dose-dependent-effect
- Activity [11]: Dose-dependent-effect
- Activity [12]: Non-toxic
- Activity [13]: Active
- Activity [14]: Non-toxic
- Activity [15]: Non-toxic
- Activity [16]: Non-toxic
- Activity [17]: Non-toxic
- Activity [18]: Non-toxic
- Activity [19]: Non-toxic
- Activity [20]: Non-toxic
- Activity [21]: Non-toxic
- Activity [22]: Non-toxic
